Laboratory results from US6166076A, “Taste enhancing food additives” (Board of Supervisors of Louisiana State University and …, priority 1997, dated 2000).

Legend:
[1] = tested on: inwardly rectifying K^+ channels (Kir); experiment: whole-cell patch clamp, inwardly rectifying K^+ channels (Kir) at -130 mV in rat fungiform taste receptor cells; assay type: cell-based, rat (Sprague-Dawley)
From the text: (§1) The effects of free fatty acids ("FFAs") on taste buds isolated from rat fungiform papillae were examined to determine if a chemosensory (i.e. non-textural) cue for fats is located in the mouth. The methods used to isolate TRCs were generally as described in Behe et al., "Membrane Currents in Taste Cells of the Rat Fungiform Papilla: Evidence for Two Types of Ca Currents and Inhibition of K Currents by Saccharin," Journal of General Physiology, Vol. 96, pp. 1061-1084 (1990); Doolin et al., "Distribution and Characterization of Functional Amiloride-sensitive Sodium Channels in Rat Tongue," Journal of General Physiology, Vol. 107. pp. 545-554 (1996); and Gilbertson et al., "Proton Currents Through Amiloride-sensitive Na^+ Channels in Isolated Hamster Taste Cells: Enhancement by Vasopressin and cAMP," Neuron, Vol. 10, pp. 931-942 (1993).
(§2) Individual fungiform taste buds were isolated from the tongues of 2- to 5-month-old male Sprague-Dawley rats (Harlan Sprague Dawley, Indianapolis,Ind.). Animals were housed individually in polycarbonate cages with food (Purina #5001, Purina Mills, St. Louis, Mo.) provided ad lib. The room containing the rats was maintained at 21-23° C. on a 0700-1900 h light-dark cycle. All animal care and experimental procedures were in accordance with National Institutes of Health guidelines, and were approved by the Institutional Animal Care and Use Committee of the Pennington Biomedical Research Center.
(§3) Tongues were removed from euthanized rats, and were immediately placed in ice-cold Tyrode's solution. To remove the lingual epithelium containing the taste buds from the underlying muscle layer, approximately 1.0 ml of Tyrode's solution containing 0.3 mg/ml collagenase A (Boehringer Mannheim Corp., Indianapolis, Ind.), 2.5 mg/ml dispase (grade II; Boehringer Mannheim) and 1.0 mg/ml trypsin inhibitor (type I-S; Sigma Chemical Co., St. Louis, Mo.) was injected below the epithelium. The injected tongue was placed in Ca--Mg free Tyrode's solution and bubbled with O2 for 33-35 min. The lingual epithelium was removed and pinned serosal side up, allowing access to the taste buds. Fungiform taste buds were removed individually by gentle suction with a large, firepolished pipette (~200 μm diameter), and were plated onto Cell-Tak™-coated microscope slides (Collaborative Biomedical Prod., Bedford, Mass.) fitted with an O-ring which served as a recording chamber. Once plated, cells were perfused continually with Tyrode's or various test solutions. Taste buds isolated in this manner were used for up to 6 hours without any noticeable morphological or physiological decrement.
(§4) All chemicals were obtained from Sigma Chemical Corporation (St. Louis, Mo.) unless otherwise indicated. Normal extracellular solution (Tyrode's) contained (in mM): NaCl, 140; KCl, 5; CaCl2, 1; MgCl2, 1; HEPES (N-[2-hydroxyethyl] piperazine-N'-[2-ethanesulfonic acid), 10; glucose, 10; and sodium pyruvate, 10. The pH was adjusted to 7.40 with NaOH. In Ca^2+ --Mg^2+ free Tyrode's solution, 2 mM BAPTA (1,2-bis(2-aminophenoxy) ethane-N,N,N',N'-tetraacetic acid) (Molecular Probes, Eugene, Oreg.) replaced CaCl2 and MgCl2. Other components were identical to Tyrode's solution. Intracellular (pipette) solution contained (in mM): KCl, 140; CaCl2, 1 [free Ca^2+ was ~10^-8 M]; MgCl2, 2; HEPES, 10; EGTA (ethylene glycol-bis(β-aminoethylether)-N,N,N',N'-tetraacetic acid), 11; and ATP, 3. The pH was adjusted to 7.20 with KOH.
(§5) Free fatty acids (FFAs) were stored below -20° C. until the day of use, when they were dissolved in warm ethanol and diluted to final working concentrations in Tyrode's solution. Final ethanol concentrations in Tyrode's were below 0.1%; the ethanol had no effect on ionic currents in any TRCs. All FFAs were applied by bath perfusion. In some experiments, FFA-containing solutions were bubbled continuously with nitrogen to retard oxygenation. […]

[2] = tested on: delayed rectifier K^+ channel; experiment: whole-cell patch clamp, delayed rectifier K^+ channel (steady-state outward K^+ current at +40 mV) in rat fungiform taste receptor cells; assay type: cell-based, rat (Sprague-Dawley)
From the text: as §1, §2, §3, §4, §5

[3] = tested on: delayed rectifying K^+ channels; experiment: patch clamp, delayed rectifying K^+ channels of TRCs isolated from S5B/P1 rats; assay type: cell-based
From the text: (§6) To determine if there is a link between the sensitivity of TRCs to PUFAs and dietary fat preferences, the PUFA-sensitivities of TRCs using patch clamp techniques were compared on TRCs isolated from Osborne-Mendel ("O-M") rats and S5B/P1 rats, strains with different dietary preferences. O-M rats prefer fat over carbohydrate, while S5B/P1 rats prefer carbohydrate over fat. […] Rats whose TRCs were more sensitive to the fatty acids have a preference for a lower-fat diet; while rats whose TRCs are less sensitive to fatty acids seek diets that are higher in fat.

[4] = tested on: cardiac atrial cells; conditions: applied extracellularly; cited from earlier work
[5] = tested on: delayed rectifying K^+ channels; experiment: patch clamp, delayed rectifying K^+ channels of TRCs isolated from Osborne-Mendel rats; assay type: cell-based
From the text: as §6

[6] = tested on: ATP-inhibitable K channel (KATP); experiment: whole-cell patch clamp, ATP-inhibitable K channel (KATP) residual current in rat fungiform taste receptor cells; assay type: cell-based, rat (Sprague-Dawley); conditions: glyburide 20 μM; in presence of arachidonic acid and 4-AP; n=6 cells
Experimental: (§7) Voltage-activated currents were recorded from individual taste receptor cells maintained in the taste bud using the whole-cell patch clamp configuration, as generally described in Hamill et al., "Improved Patch-clamp Techniques for High-resolution Current Recording from Cells and Cell-free Membrane Patches," Pflugers Arch., Vol. 391, pp. 85-100 (1981). […]
(§8) Typical seal resistances on TRC membranes ranged from […] to greater than 50 G.OMEGA.. […] Commands were delivered and data recorded using pCLAMP software (version 6.0.3) interfaced to an AxoPatch 200A amplifier with a Digidata 1200A A-D board (Axon Instruments, Foster City, Calif.). […]
(§9) For analysis, currents during FFA application were averaged over a consistent time range corresponding to the steady-state condition, and were compared to currents in control (Tyrode's) solution. […] For analysis of delayed rectifying K^+ channels, currents were measured at command potentials of +40 mV during steady-state; inwardly rectifying currents, when investigated, were measured at -130 mV. Significant effects of FFAs on K^+ currents were determined by paired Student's t tests (α=0.05) compared to control currents immediately preceding the test stimulus. […]

[7] = tested on: inactivating A-type K^+ channels (IA); experiment: whole-cell patch clamp, inactivating A-type K^+ current (IA) in rat fungiform taste receptor cells; assay type: cell-based, rat (Sprague-Dawley); conditions: 4-AP 10 mM; in presence of arachidonic acid; n=10 cells
Experimental: as §7, §8, §9

SMILES: CCCCC/C=C\C/C=C\C/C=C\C/C=C\CCCC(=O)O [arachidonic acid]
- change of Kir over control levels, in words ([1]; 10 μM arachidonic acid, approximately 30% of cells): approximately doubling Kir over control levels
- Kir compared to control ([1]; 10 μM, -130 mV, n=16 cells, % of control): 191%±19.7
- share of cells in which Kir was activated ([1]; 10 μM, subset of cells, of the total): approximately 30%
- activation of Kir in cells that did not show this current in control ([1]; cells without Kir in control (saline) conditions): not able to activate Kir
- effect on inward currents in cells without inward rectification ([1]; potentials more negative than -100 mV, n=37 cells): not significantly affected
- effect on outward K^+ currents, specificity test ([2]; 10 μM, >10 min (maximal effect), significance by paired t test): significantly reduced outward K^+ currents
- inhibition of the voltage-activated steady-state outward K^+ current ([2]; 10 μM, +40 mV, n=44 cells): 83%
- mean time constant (ton) for the onset of effects ([2]; 10 μM, n=18 cells): 4.37 ± 1.8 min
- inhibition of delayed rectifier K^+ channel in presence of NDGA and indomethacin ([2]; NDGA 10 μM and indomethacin 200 μM, n=5 cells): inhibited the delayed rectifier K^+ channel
- effect on outward K^+ currents / delayed rectifier K^+ channel (in words) ([2]; arachidonic acid 0.25-100 μM, extracellular, all cells examined): reversible, slowly developing inhibition of the delayed rectifier K^+ channel
- time to reach maximum effect on outward K^+ currents ([2]; extracellular arachidonic acid): 10 to 15 min
- recovery time constant (toff) from inhibition ([2]; n=18 cells): 10.92 ± 5.9 min
- time constant for inactivation of the outward K^+ current ([2]; presence of 10 μM arachidonic acid, control 457±103 msec, n=20): 42 ± 26 ms
- Ki ([2]; read-out: inhibition constant (Ki) for the delayed rectifier K^+ channel): 1020 nM
- stimulation of taste receptor cells ([2]; summary statement): stimulate taste receptor cells
- sensitivity of S5B/P1 TRCs to inhibition compared with O-M TRCs ([3]; 10 μM, versus TRCs from O-M rats): significantly more sensitive to inhibition
- inhibition of the delayed rectifying K^+ channels, S5B/P1 rats ([3]; TRCs from S5B/P1 rats): inhibited the delayed rectifying K^+ channels in a concentration-dependent manner
- response of cardiac cells [4]: responded
- inhibition of the delayed rectifying K^+ channels, O-M rats [5]: inhibited the delayed rectifying K^+ channels in a concentration-dependent manner

SMILES: COc1ccc(Cl)cc1C(=O)NCCc1ccc(S(=O)(=O)NC(=O)NC2CCCCC2)cc1 [glyburide]
- block of the residual (KATP) current [6]: blocked the residual current

SMILES: Nc1ccncc1 [4-aminopyridine]
- inhibition of the rapidly inactivating current (IA) [7]: reversibly and completely inhibited
